The text below walks through data of US11957757B2, “Method for preparing stabilized metal ion ligand nanocomplex and compositions thereof” (AUBURN UNIVERSITY, priority 2017, dated 2024).

Experiment [1] concerns DU145-TXR drug-resistant prostate cancer cells. Nature of the experiment: MTT cytotoxicity assay, DU145-TXR cells. Type of experiment: cell-based. The settings on record: for cell toxicity: equivalent concentrations, 48 hours. On the procedure: Cells were cultured at 37° C. in a humidified atmosphere containing 5% CO2. […] Cytotoxicity was calculated using the following equation: Cell Viability (%)=(ATest/Acontrol)×100%. Furthermore, IC50 was calculated with SigmaPlot software based on a dose-response curve.
(Formazan colour is commonly taken as a measure of viable cells.)

Experiment [2] relates to DU145-TXR cells. Nature of the experiment: Intracellular ROS, H2DCFDA dye method. The class given is cell-based. As to conditions: 100 μM, positive control. On the procedure:
The generation of ROS was determined with a 2′,7′-dichlorodihydrofluorescein diacetate (H2DCFDA) dye method. Briefly, cells were seeded in a dark-walled, clear-bottomed 96-well plate with 50,000 cells per well and incubated at 37° C. overnight before study. Cells were incubated with 20 μM H2DCFDA in Hank's Buffered Salt Solution (HBSS, pH=7.4) for 30 minutes at 37° C. in the dark, and treated with different formulations.

The subject of experiment [3] is DU145-TXR cells. The experiment can be described thus: Endoplasmic reticulum (ER) staining. The settings on record: 0.5 μM, 8 hours.

Each structure is given as a SMILES string.

Turning to `[Cl][Cu][Cl]` [CuCl2, copper chloride], the cell toxicity entry in experiment [1] is given as “did not show significant cell toxicity”.

Take `CCN(CC)C(=S)S` [DDC-Na, sodium diethyldithiocarbamatetrihydrate]: the cell toxicity entry in experiment [1] is “did not show significant cell toxicity”.

Regarding `OO` [H2O2], the ROS level entry with DU145-TXR cells [2] is recorded as “increased”.

On to `CC(=O)O[C@H]1C(=O)[C@@]2(C)[C@H]([C@H](OC(=O)c3ccccc3)[C@]3(O)C[C@H](OC(=O)[C@H](O)[C@@H](NC(=O)c4ccccc4)c4ccccc4)C(C)=C1C3(C)C)[C@]1(OC(C)=O)CO[C@@H]1C[C@@H]2O` [paclitaxel], for which half-maximal inhibition in experiment [1] (48 hours of treatment) (IC50) was put at 2.58 µM. Moreover, the “ER structure (ER-specific dye staining)” value with DU145-TXR cells [3] is recorded as “typical reticulate structure”.
